Format in all cases: cell-based, human
The test system of test [1] is p21 (cyclin-dependent kinase inhibitor). The test can be described thus: p21 mRNA expression in HT-29 cells, real-time PCR. As to conditions: HT-29, 1 μM, after 4 hr. The protocol: The effect of compounds of Formula I on the expression of genes regulated by KLF4 was determined as follows. Compound 3 was tested to determine its ability to increase the expression of the cell cycle regulator p21 (cyclin-dependent kinase inhibitor) in HT-29 colon carcinoma cells. […] HT-29 cells were incubated with DMSO (vehicle control), 35 μM ZnCl2, 1 μM or 4 μM TPEN, or 0.5 μM, 1 μM, 4 μM, or 7.5 μM compound 3 for 16 hours, and mRNA was extracted from the cells. The expression of p21 mRNA was analyzed by real-time polymerase chain reaction using the comparative CT method. This assay was carried out using methods described in Example 19.
The expressions of p21 gene and proteins were examined following treatment with compound 3. Gene expression of p21 in HT-29 cells treated with 1 μM compound 3 was determined at the indicated times as follows. Total RNA was extracted and gene expression level was determined by RT-PCR (FIG. 42A). The level of p21 protein in total cell lysate was measured by ELISA (FIG. 42B) as follows. HT-29 cells were treated with 1 μM compound 3 with and without 20 μM MG-132 (proteasome inhibitor) for indicated time.
On the technique in general: Quantitative PCR measures a nucleic acid by following its amplification.

The subject of test [2] is intracellular zinc ions in HT-29 cells. The test can be described thus: Chelation of intracellular zinc in HT-29 cells, Zinquin fluorescence. The settings on record: HT-29 with or without pre-loading with 35 μM ZnCl2, 30 min. The protocol: To determine the chelation property of compound 3 with intracellular zinc ions, HT-29 cells, with or without pre-loaded with 35 μM ZnCl2 were treated with compound 3, a known zinc chelator TPEN or vehicle control (DMSO), and intracellular free zinc was determined by measuring Zinquin fluorescence as described in the preceding Example (FIG. 37). HT-29 cells (4×10^5 cells/group) were pre-treated with 35 μM ZnCl2 for 20 min, followed by addition of indicated concentrations of compound 3 or TPEN and 10 μM Zinquin for 30 min at 37° C., and the fluorescence count was measured (FIG. 37A). For measurement of chelation of endogenous zinc ions in HT-29 cells, HT-29 cells (1.5×10^6 cells/group) were treated with indicated concentrations of compound 3 and 10 μM Zinquin for 30 min at 37° C., and the fluorescence count was measured (FIG. 37B).

The subject of test [3] is copper transporter, Ctrl also known as SLC31A1. The test can be described thus: Copper transporter Ctr1 (SLC31A1) gene expression in HT-29 cells, RT-PCR. As to the method: The effect of compound 3 and compound 7 treatment on the expressions of a zinc-storage protein meallothionein 1A (MT1A) (FIG. 29A), a copper transporter, Ctrl also known as SLC31A1 (FIG. 29B) and an iron transporter; transferrin receptor 1 (TfR1) (FIG. 29C) were measured and compared with a known zinc chelator TPEN, a copper chelator tetramine and an iron chelator DFO, respectively. Despite in vitro chelation of Cu^+2, increase in copper-sensitive gene after compound 3 treatment was transient.

For test [4], the system named is KLF4 protein. The test can be described thus: KLF4 protein in HT-29 cells, Western blot. As to conditions: HT-29, 2.5, 5, 7.5 and 10 μM, 16 hours. As to the method: The ability of compound of Formula I to increase expression of KLF4 protein was determined as follows. HT-29 cells were treated with vehicle control (DMSO), TPEN (4 μM), ZnCl2 (100 μM), or compound 3 (2.5, 5, 7.5 and 10 μM) for 16 hours. Cells were lysed and subjected to Western blot with anti-KLF4 antibodies, or GAPDH antibodies to ensure equal protein loading.
(In general: A western blot detects proteins with antibodies after separation by electrophoresis.)

In test [5] the test system is normal cell lines PrEC, HMEC, WI38 and cancer cell lines DU145, MDA-MB-435, HT-29. The test can be described thus: Cancer cell selectivity, IC90 in normal versus cancer cell lines (XTT). The settings on record: average IC90 of all normal / average IC90 of all cancer cell lines, 6 to 7 days. An excerpt: An exemplary method of assessing the differential sensitivity between normal and cancer cells for a compound has been described by Vassilev et al. (Anti-Cancer Drug Design (2001) 16:7). This method involves the comparison of IC90 values, i.e. the molar concentration of a test compound required to cause 90% growth inhibition of exponentially growing cells. Thus, the IC90 values for candidate compounds can be evaluated in various cancer cell lines (such as those outlined above) and normal cells (such as HUVEC and/or WI38 cells) and compared. IC90 values can be measured using a variety of standard techniques as known in the art. Cancer cell selectivity is calculated as a ratio between the average IC90 for all normal cell lines and the average IC90 for all cancer cell lines. Compounds with an IC90 ratio (normal/cancer) of >4 are considered to be selective for cancer cells (L. T. Vassilev et al., Anti-cancer Drug Design, 2001, 16: 7-17).
The normal cells lines used were PrEC (prostate), HMEC (breast), and WI38 (lung fibroblast) cell lines and the cancer cells lines were DU145 (prostate), MDA-MB-435 (breast), HT-29 (colon). IC90 values were also determined for the controls doxorubicin and etoposide. The cells were cultured as generally described in Example 13. Various concentrations of the compounds were incubated with the cells for 6 to 7 days, and the number of proliferating cells was measured using the XTT assay. Cancer cell selectivity was calculated as a ratio between the average IC90 for all normal and the average IC90 for all cancer cell lines.
On the technique in general: Formazan colour is commonly taken as a measure of viable cells.

For test [6], the system named is Sp1. The test can be described thus: Sp1 DNA binding activity, EMSA, HT-29 nuclear extracts. The protocol: Based on overlapping transcription factor binding sites on KLF4 gene promoter region (as shown in FIG. 32A), MTF-1 binding may favor increased binding of other KLF4 inducers; Sp1 and KLF4.
Electrophoretic mobility shift assay (EMSA) was performed as follows. Nuclear extracts from HT-29 cells (10^7 cells in 100 mm culture dish in each experimental group) were prepared using nuclear extraction kit (Panomics, Redwood City, Calif.). EMSA assays were performed using KLF4 and Sp1 EMSA “Gel-Shift” kits (Panomics), by following the manufacturer's instruction. Briefly, 5 μg of nuclear extract was used for each binding reaction. After 30 min of binding reaction, the samples were separated on 6% polyacrylamide gel at 4° C. at 120 V, and transferred to BrightStar™-Plus positively charged nylon membrane. The biotin-labeled probes on the membrane were visualized by using ECL detection system (Panomics).

Each structure is given as a SMILES string. Where only a bound is given, the exact number is not on record here.

Consider `Cc1[nH]c2ccccc2c1-c1nc2c3cccnc3c3ncccc3c2[nH]1` [Compound 3], for which, in test [1], the “p21 gene expression, change” value was “Increased gene expression of p21”. In addition, the “intracellular free zinc (Zinquin fluorescence)” value in test [2] is “Dose-dependent decrease in both pre-loaded zinc and endogenous zinc levels”. The copper-sensitive gene expression entry in test [3] was “transient”. Also, in test [4], the “level of KLF4 protein” value was “able to increase the level of KLF4 protein”. Also, the “Normal/cancer IC90 ratio” value in test [5] is greater than 4.3. The “DNA binding activity of Sp1” value in test [6] is recorded as “Increased DNA binding activities”.

The values above are taken from US8148392B2, “2-indolyl imidazo [4,5-d] phenanthroline derivatives and their use in the treatment of cancer” (Lorus Therapeutics Inc., priority 2005, dated 2012).
